Test results from patent US9844556B2, “Preventive/therapeutic method and preventive/therapeutic agent for complications after cataract surgery” (KOWA COMPANY, LTD., priority 2015, dated 2017).

Columns and labels:
[1] = system: HLEpiC; assay: Reversibility of inhibition of cell migration after removal; type: cell-based, human; settings: for time after removal at which Detection Zone was filled with HLEpiC: then removal
Procedure: After the operation in Example 4, the test substance, the positive control, or the comparative control was removed, and after brief washing with the medium, the medium was added at 100 μL/well, and the cells were cultured in a carbon dioxide incubator (37° C., 5% CO2).

[2] = system: Normal human fibroblasts; assay: Cytostatic action, BrdU uptake (Cell Proliferation ELISA); type: cell-based; settings: dermal fibroblast proliferation, 2 days
Procedure: Normal human fibroblasts (Sanko Junyaku Co., Ltd.) were seeded at 2000 cells/well and cultured overnight. Next day, the medium (FGM-2 (Sanko Junyaku Co., Ltd.)) was exchanged (150 μL), and 10 μL of Ripasudil was then added so that the final concentration was 0.1 μM, 1 μM and 10 μM. After culturing for 2 days, 10 μL of BrdU (58.8-fold diluted solution: an undiluted solution is a 1000-fold solution) was added, and the cells were cultured for 2 hours. OD540-620 was measured using a plate reader after fixation and antibody addition, washing and coloring, and reaction termination in accordance with the protocol of Cell Proliferation ELISA BrdU kit (Roche), and an action on proliferation was evaluated. A value in a sample in which Ripasudil is not added is considered as 100%, and the uptake rate of BrdU under each condition is shown in Table 2.

[3] = system: Human lens epithelial cells (HLEpiC); assay: Reversibility of inhibition of actin stress fiber formation after removal; type: cell-based; settings: recultured about 24 hours after removal
Procedure: After removal of the test substance, positive control or comparative control in Example 1, the cells were recultured for about another 24 hours, treated in accordance with the operation in Example 1, and then observed by a confocal laser scanning microscope in the same manner as in Example 1 to observe the reversibility of actin stress fibers.

[4] = system: Human lens epithelial cells (HLEpiC); assay: Inhibitory action on actin stress fiber formation (phalloidin staining, confocal microscopy); type: cell-based; settings: treated about an hour
Procedure: Human lens epithelial cells (HLEpiC (ScienCell Research Laboratories)) were diluted with a medium (Epithelial Cell Medium (ScienCell Research Laboratories)), dispensed to each well of Poly-L-lysine (ScienCell Research Laboratories) coated Imaging Chamber CG at 100 μL/well (about 5000 cells/cm^2), and cultured in a carbon dioxide incubator (37° C., 5% CO2) until about 50% confluent. The medium was removed with vacuum suction and a test substance, a positive control, a comparative control, or the medium (control) at each concentration given below was added to each well at 300 μL/well:
Test substance: Ripasudil with a concentration of 10 μM, 100 μM or 1 mM,
Positive control: Cytochalasin D with a concentration of 2 μM,
These were treated in a carbon dioxide incubator (37° C., 5% CO2) for about an hour, and then washed once with the medium. 4% Paraformaldehyde Phosphate Buffer Solution (Wako Pure Chemical Industries, Ltd.) (hereinafter, referred to as a fixative solution) was added at 300 μL/well, and fixation was carried out at room temperature for 2 minutes. After washing with the medium, 0.5% Triton X-100 (Roche Diagnostics K.K.) was added at 300 μL/well, and penetrated at room temperature for 2 minutes. After washing with the medium, the fixative solution was added at 300 μL/well, and fixation was carried out at room temperature for 20 minutes.
Separately, 25 μL of 14 μM Actin-Stain™ 555 phalloidin (Cytoskeleton, Inc.) (hereinafter, referred to as Phalloidin) was added to 3475 μL of 10 mM phosphate buffered saline (Wako Pure Chemical Industries, Ltd.) to produce 100 nM Phalloidin.
This 100 nM Phalloidin was added to each well washed with the medium at 200 μL/well, and staining was carried out at room temperature in a dark place for about 60 minutes.
After washing with the medium, the chamber was removed, and […] Mounting Medium with DAPI (Vector Laboratories, Inc.) was dropped onto a cover glass with a few drops. A slide glass was placed thereon and this was left to stand at room temperature in a dark place for 30 minutes or more, and adhesion and nuclear staining were carried out and then observed by a confocal laser scanning microscope.

C[C@H]1CNCCCN1S(=O)(=O)c1cccc2cncc(F)c12 [Ripasudil, 4-fluoro-5-{[(2S)-2-methyl-1,4-diazepan-1-yl]sulfonyl}isoquinoline]
time after removal at which Detection Zone was filled with HLEpiC ([1]; 100 μM treatment): about 24 hours | state of Detection Zone about 48 hours after removal ([1]; 1 mM treatment, about 48 hours after removal): not filled with HLEpiC | time after removal at which Detection Zone was filled with HLEpiC ([1]; 1 mM treatment): 116 h | Uptake rate of BrdU (% of control) ([2]; Ripasudil 0.1 μM): 80.0 % of control | Uptake rate of BrdU (% of control) ([2]; Ripasudil 1.0 μM): 59.3 % of control | Uptake rate of BrdU (% of control) ([2]; Ripasudil 10.0 μM): 10.9 % of control | reversibility of actin stress fibers ([3]; 100 μM): recovered | reversibility of actin stress fibers ([3]; 1 mM): recovered | actin stress fibers (observation) ([4]; 10 μM): slightly disappear | actin stress fibers (observation) ([4]; 100 μM): significantly disappear | actin stress fibers (observation) ([4]; 1 mM): significantly disappear
